Data published in US11491157B2, “Cycloalkyl substituted pyrazolopyrimidines having activity against RSV” (priority 2018, dated 2022).
Where a name gives a salt, the structure may show the parent alone.

Key:
in vitro = conditions: human
Protocol: (§1) Black 384-well clear-bottom microtiter plates (Corning, Amsterdam, The Netherlands) were filled via acoustic drop ejection using the echo liquid handler (Labcyte, Sunnyvale, Calif.). 200 nL of compound stock solutions (100% DMSO) were transferred to the assay plates. 9 serial 4-fold dilutions of compound were made, creating per quadrant the same compound concentration. The assay was initiated by adding 10 μL of culture medium to each well (RPMI medium without phenol red, 10% FBS-heat inactivated, 0.04% gentamycin (50 mg/mL). All addition steps are done by using a multidrop dispenser (Thermo Scientific, Erembodegem, Belgium). Next, rgRSV224 virus (MOI=1) diluted in culture medium was added to the plates. rgRSV224 virus is an engineered virus that includes an additional GFP gene (Hallak L K, Spillmann D, Collins P L, Peeples M E. Glycosaminoglycan sulfation requirements for respiratory syncytial virus infection; Journal of virology (2000), 74(22), 10508-13) and was in-licensed from the NIH (Bethesda, Md., USA). Finally, 20 μL of a HeLa cell suspension (3,000 cells/well) were plated. Medium, virus- and mock-infected controls were included in each test. The wells contain 0.05% DMSO per volume. Cells were incubated at 37° C. in a 5% CO2 atmosphere. Three days post-virus exposure, viral replication was quantified by measuring GFP expression in the cells by an in house developed MSM laser microscope (Tibotec, Beerse, Belgium). The EC50 was defined as the 50% inhibitory concentration for GFP expression. In parallel, compounds were incubated for three days in a set of white 384-well microtiter plates (Corning) and the cytotoxicity of compounds in HeLa cells was determined by measuring the ATP content of the cells using the ATPlite kit (Perkin Elmer, Zaventem, Belgium) according to the manufacturer's instructions. The CC50 was defined as the 50% concentration for cytotoxicity.

rgRSV224 virus = assay: Antiviral activity: rgRSV224 (GFP) replication in HeLa cells; conditions: human respiratory syncytial virus, 72 h, read-out: RSV HELA EC50
Protocol: as §1

| Structure (SMILES) | CC50 at 3 days (in vitro) [nM] | EC50 (rgRSV224 virus) [nM] |
| --- | --- | --- |
| C[C@@H]1c2ccccc2CCN1C(=O)c1cc(C2CC2)n2nc(-c3ccc(C4C[C@H]4C(N)=O)nc3F)cc2n1 (relative stereo) [Compound 51, Trans-2-(5-{7-Cyclopropyl-5-[(1R)-1-methyl-1,2,3,4-tetrahydroisoquinoline-2-carbonyl]pyrazolo[1,5-a]pyrimidin-2-yl}-6-fluoropyridin-2-yl)cyclopropane-1-carboxamide] | 25900 | 47 |
| C[C@@H]1c2ccccc2CCN1C(=O)c1cc(C2CC2)n2nc(-c3ccc([C@H]4C[C@@H](CC(N)=O)C4)cc3F)cc2n1 [Compound 46, 2-[cis-3-(4-{7-Cyclopropyl-5-[(1R)-1-methyl-1,2,3,4-tetrahydroisoquinoline-2-carbonyl]pyrazolo[1,5-a]pyrimidin-2-yl}-3-fluorophenyl)cyclobutyl]acetamide] | 30400 | 145 |
| C[C@@H]1c2ccccc2CCN1C(=O)c1cc(C2CC2)n2nc(-c3ccc([C@H]4C[C@H](COC(N)=O)C4)cc3F)cc2n1 [Compound 43, [trans-3-(4-{7-Cyclopropyl-5-[(1R)-1-methyl-1,2,3,4-tetrahydroisoquinoline-2-carbonyl]pyrazolo[1,5-a]pyrimidin-2-yl}-3-fluorophenyl)cyclobutyl]methyl carbamate] | > 100000 | 307 |
| C[C@@H]1c2ccccc2CCN1C(=O)c1cc(C2CC2)n2nc(-c3ccc([C@H]4C[C@@H]4C(=O)N(C)C)cc3F)cc2n1 [Compound 22, (1S,2S)-2-(4-{7-Cyclopropyl-5-[(1R)-1-methyl-1,2,3,4-tetrahydroisoquinoline-2-carbonyl]-pyrazolo[1,5-a]pyrimidin-2-yl}-3-fluorophenyl)-N,N-dimethylcyclopropane-1-carboxamide] | 51800 | 427 |
| C[C@@H]1c2ccccc2CCN1C(=O)c1cc(C2CC2)n2nc(-c3ccc([C@H]4C[C@@H]4c4noc(=O)[nH]4)cc3F)cc2n1 [Compound 5, 3-[(1S,2S)-2-(4-{7-Cyclopropyl-5-[(1R)-1-methyl-1,2,3,4-tetrahydroisoquinoline-2-carbonyl]pyrazolo[1,5-a]pyrimidin-2-yl}-3-fluorophenyl)cyclopropyl]-4,5-dihydro-1,2,4-oxadiazol-5-one] | 41800 | 98 |
| C[C@@H]1c2ccccc2CCN1C(=O)c1cc(C2CC2)n2nc(-c3ccc([C@H]4C[C@@H]4C(=O)NS(=O)(=O)C(F)(F)F)cc3F)cc2n1 [Compound 29, (1S,2S)-2-(4-{7-Cyclopropyl-5-[(1R)-1-methyl-1,2,3,4-tetrahydroisoquinoline-2-carbonyl]pyrazolo[1,5-a]pyrimidin-2-yl}-3-fluorophenyl)-N-trifluoromethane-sulfonylcyclopropane-1-carboxamide amine salt] | > 100000 | 2360 |
| C[C@@H]1c2ccccc2CCN1C(=O)c1cc(C2CC2)n2nc(-c3ccc([C@H]4C[C@H](CO)C4)cc3F)cc2n1 [Compound 41, [trans-3-(4-{7-Cyclopropyl-5-[(1R)-1-methyl-1,2,3,4-tetrahydroisoquinoline-2-carbonyl]pyrazolo[1,5-a]pyrimidin-2-yl}-3-fluorophenyl)cyclobutyl]methanol] | 49800 | 152 |
| COC(=O)N[C@H]1C[C@@H]1c1ccc(-c2cc3nc(C(=O)N4CCc5ccccc5[C@H]4C)cc(C4CC4)n3n2)c(F)c1 [Compound 33, Methyl N-[(1S,2R)-2-(4-{7-cyclopropyl-5-[(1R)-1-methyl-1,2,3,4-tetrahydroisoquinoline-2-carbonyl]pyrazolo[1,5-a]pyrimidin-2-yl}-3-fluorophenyl)cyclopropyl]carbamate] | > 100000 | 155 |
| C[C@@H]1c2ccccc2CCN1C(=O)c1cc(C2CC2)n2nc(-c3ccc(C4C[C@H]4C(=O)NS(C)(=O)=O)nc3F)cc2n1 (relative stereo) [Compound 52, Trans-2-(5-{7-Cyclopropyl-5-[(1R)-1-methyl-1,2,3,4-tetrahydroisoquinoline-2-carbonyl]pyrazolo[1,5-a]pyrimidin-2-yl}-6-fluoropyridin-2-yl)-N-methanesulfonylcyclopropane-1-carboxamide] | 65300 | 117 |
| C[C@@H]1c2ccccc2CCN1C(=O)c1cc(C2CC2)n2nc(-c3ccc([C@H]4C[C@@H]4C(=O)N4CCCC4)cc3F)cc2n1 [Compound 23, (1R)-2-(7-Cyclopropyl-2-{2-fluoro-4-[(1S,2S)-2-(pyrrolidine-1-carbonyl)cyclopropyl]-phenyl}pyrazolo[1,5-a]pyrimidine-5-carbonyl)-1-methyl-1,2,3,4-tetrahydroisoquinoline] | 16900 | 427 |
| C[C@@H]1c2ccccc2CCN1C(=O)c1cc(C2CC2)n2nc(-c3ccc([C@H]4C[C@@H]4NC(=O)C4CC4)cc3F)cc2n1 [Compound 35, N-[(1S,2R)-2-(4-{7-Cyclopropyl-5-[(1R)-1-methyl-1,2,3,4-tetrahydroisoquinoline-2-carbonyl]pyrazolo[1,5-a]pyrimidin-2-yl}-3-fluorophenyl)cyclopropyl]cyclopropane-carboxamide] | > 100000 | 57 |
| C[C@@H]1c2ccccc2CCN1C(=O)c1cc(C2CC2)n2nc(-c3ccc([C@H]4C[C@@H]4C(=O)NC#N)cc3F)cc2n1 [Compound 13, (1S,2S)—N-Cyano-2-(4-{7-cyclopropyl-5-[(1R)-1-methyl-1,2,3,4-tetrahydroisoquinoline-2-carbonyl]pyrazolo[1,5-a]pyrimidin-2-yl}-3-fluorophenyl)cyclopropane-1-carboxamide] | 49800 | 731 |
| C#CCNC(=O)[C@H]1C[C@@H]1c1ccc(-c2cc3nc(C(=O)N4CCc5ccccc5[C@H]4C)cc(C4CC4)n3n2)c(F)c1 [Compound 17, (1S,2S)-2-(4-{7-Cyclopropyl-5-[(1R)-1-methyl-1,2,3,4-tetrahydroisoquinoline-2-carbonyl]-pyrazolo[1,5-a]pyrimidin-2-yl}-3-fluorophenyl)-N-(prop-2-yn-1-yl)cyclopropane-1-carboxamide] | > 100000 | 182 |
| CCNC(=O)[C@H]1C[C@@H]1c1ccc(-c2cc3nc(C(=O)N4CCc5ccccc5[C@H]4C)cc(C4CC4)n3n2)c(F)c1 [Compound 14, (1S,2S)-2-(4-{7-Cyclopropyl-5-[(1R)-1-methyl-1,2,3,4-tetrahydroisoquinoline-2-carbonyl]pyrazolo[1,5-a]pyrimidin-2-yl}-3-fluorophenyl)-N-ethylcyclopropane-1-carboxamide] | > 50000 | 170 |
| C[C@@H]1c2ccccc2CCN1C(=O)c1cc(C2CC2)n2nc(-c3ccc([C@@H]4C[C@H]4c4cc(=O)[nH]o4)cc3F)cc2n1 [Compound 2, 5-[(1R,2R)-2-(4-{7-Cyclopropyl-5-[(1R)-1-methyl-1,2,3,4-tetrahydroisoquinoline-2-carbonyl]pyrazolo[1,5-a]pyrimidin-2-yl}-3-fluorophenyl)cyclopropyl]-2,3-dihydro-1,2-oxazol-3-one] | 42500 | 84 |
| C[C@@H]1c2ccccc2CCN1C(=O)c1cc(C2CC2)n2nc(-c3ccc([C@H]4C[C@@H]4C(=O)NC4(C)CC4)cc3F)cc2n1 [Compound 20, (1S,2S)-2-(4-{7-Cyclopropyl-5-[(1R)-1-methyl-1,2,3,4-tetrahydroisoquinoline-2-carbonyl]-pyrazolo[1,5-a]pyrimidin-2-yl}-3-fluorophenyl)-N-(1-methylcyclopropyl)cyclopropane-1-carboxamide] | > 10000 | 287 |
| C[C@@H]1c2ccccc2CCN1C(=O)c1cc(C2CC2)n2nc(-c3cnc(C4C[C@H]4C(=O)NS(C)(=O)=O)cc3F)cc2n1 (relative stereo) [Compound 50, Trans-2-(5-{7-Cyclopropyl-5-[(1R)-1-methyl-1,2,3,4-tetrahydroisoquinoline-2-carbonyl]pyrazolo[1,5-a]pyrimidin-2-yl}-4-fluoropyridin-2-yl)-N-methanesulfonylcyclopropane-1-carboxamide] | 53300 | 389 |
| CNC(=O)C[C@H]1C[C@H](c2ccc(-c3cc4nc(C(=O)N5CCc6ccccc6[C@H]5C)cc(C5CC5)n4n3)c(F)c2)C1 [Compound 47, N-methyl-2-[trans-3-(4-{7-cyclopropyl-5-[(1R)-1-methyl-1,2,3,4-tetrahydroisoquinoline-2-carbonyl]pyrazolo[1,5-a]pyrimidin-2-yl}-3-fluorophenyl)cyclobutyl]acetamide] | 25800 | 148 |
| C[C@@H]1c2ccccc2CCN1C(=O)c1cc(C2CC2)n2nc(-c3ccc([C@H]4C[C@@H]4NS(C)(=O)=O)cc3F)cc2n1 [Compound 36, N-[(1S,2R)-2-(4-{7-Cyclopropyl-5-[(1R)-1-methyl-1,2,3,4-tetrahydroisoquinoline-2-carbonyl]pyrazolo[1,5-a]pyrimidin-2-yl}-3-fluorophenyl)cyclopropyl]methanesulfonamide] | > 100000 | 110 |
| C[C@@H]1c2ccccc2CCN1C(=O)c1cc(-c2ccccc2)n2nc(-c3ccc([C@@H]4C[C@H]4C(=O)NS(C)(=O)=O)cc3F)cc2n1 (single isomer, unassigned) [Compound 32, (1*R,2*R)-2-(3-Fluoro-4-{5-[(1R)-1-methyl-1,2,3,4-tetrahydroisoquinoline-2-carbonyl]-7-phenylpyrazolo[1,5-a]pyrimidin-2-yl}phenyl)-N-methanesulfonyl-cyclopropane-1-carboxamide; propan-2-amine salt] | 37300 | 61 |
| C[C@@H]1c2ccccc2CCN1C(=O)c1cc(C2CC2)n2nc(-c3ccc([C@H]4C[C@H](CC(N)=O)C4)cc3F)cc2n1 [Compound 45, 2-[trans-3-(4-{7-Cyclopropyl-5-[(1R)-1-methyl-1,2,3,4-tetrahydroisoquinoline-2-carbonyl]pyrazolo[1,5-a]pyrimidin-2-yl}-3-fluorophenyl)cyclobutyl]acetamide] | 29500 | 146 |
